Activity calls are given as the source filed them. The calls are words filed in the database; no cut-off is given here.
Key:
CT26 [1] = test: Antitumor activity against mouse CT26 cells xenografted in BALB/c mouse assessed as tumor growth inhibition at 10 to 30 mg/kg, ip QD and measured upto 9 days; type: functional, organism-based; conditions: dose 10-30 mg/kg, time <= 9.0 day
Beta catenin-BCL9 = target: T1, Beta catenin-BCL9 (Mus musculus, UniProt Q02248+Q9D219); test: Inhibition of beta-catenin/BCL9 protein-protein interaction in Wnt-dependent BCL9 knockdown mouse CT26 cells assessed as reduction in Axin2 expression level by qRT-PCR assay; type: cell-based
T1 sequence (Q02248 whole entry): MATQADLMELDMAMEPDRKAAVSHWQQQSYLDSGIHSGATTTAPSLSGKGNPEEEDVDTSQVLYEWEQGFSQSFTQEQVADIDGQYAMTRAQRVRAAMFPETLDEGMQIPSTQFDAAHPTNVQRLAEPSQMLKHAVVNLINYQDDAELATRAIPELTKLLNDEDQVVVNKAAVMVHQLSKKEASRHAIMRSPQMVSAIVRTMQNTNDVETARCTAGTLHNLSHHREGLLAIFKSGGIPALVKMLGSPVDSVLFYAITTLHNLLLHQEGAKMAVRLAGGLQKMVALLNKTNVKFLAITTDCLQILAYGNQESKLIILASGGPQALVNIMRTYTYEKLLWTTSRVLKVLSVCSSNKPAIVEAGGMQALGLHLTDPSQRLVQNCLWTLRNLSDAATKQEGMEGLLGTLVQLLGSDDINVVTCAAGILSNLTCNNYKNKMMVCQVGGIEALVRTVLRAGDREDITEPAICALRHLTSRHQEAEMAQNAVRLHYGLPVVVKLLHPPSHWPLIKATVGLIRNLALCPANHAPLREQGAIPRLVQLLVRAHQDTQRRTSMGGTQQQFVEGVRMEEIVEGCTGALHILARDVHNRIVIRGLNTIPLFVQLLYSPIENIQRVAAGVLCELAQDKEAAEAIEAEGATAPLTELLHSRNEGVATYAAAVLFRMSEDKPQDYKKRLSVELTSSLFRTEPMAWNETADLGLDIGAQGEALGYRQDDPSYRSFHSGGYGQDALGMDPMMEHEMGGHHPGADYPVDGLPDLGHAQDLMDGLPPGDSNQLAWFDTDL
T1 sequence (Q9D219 whole entry): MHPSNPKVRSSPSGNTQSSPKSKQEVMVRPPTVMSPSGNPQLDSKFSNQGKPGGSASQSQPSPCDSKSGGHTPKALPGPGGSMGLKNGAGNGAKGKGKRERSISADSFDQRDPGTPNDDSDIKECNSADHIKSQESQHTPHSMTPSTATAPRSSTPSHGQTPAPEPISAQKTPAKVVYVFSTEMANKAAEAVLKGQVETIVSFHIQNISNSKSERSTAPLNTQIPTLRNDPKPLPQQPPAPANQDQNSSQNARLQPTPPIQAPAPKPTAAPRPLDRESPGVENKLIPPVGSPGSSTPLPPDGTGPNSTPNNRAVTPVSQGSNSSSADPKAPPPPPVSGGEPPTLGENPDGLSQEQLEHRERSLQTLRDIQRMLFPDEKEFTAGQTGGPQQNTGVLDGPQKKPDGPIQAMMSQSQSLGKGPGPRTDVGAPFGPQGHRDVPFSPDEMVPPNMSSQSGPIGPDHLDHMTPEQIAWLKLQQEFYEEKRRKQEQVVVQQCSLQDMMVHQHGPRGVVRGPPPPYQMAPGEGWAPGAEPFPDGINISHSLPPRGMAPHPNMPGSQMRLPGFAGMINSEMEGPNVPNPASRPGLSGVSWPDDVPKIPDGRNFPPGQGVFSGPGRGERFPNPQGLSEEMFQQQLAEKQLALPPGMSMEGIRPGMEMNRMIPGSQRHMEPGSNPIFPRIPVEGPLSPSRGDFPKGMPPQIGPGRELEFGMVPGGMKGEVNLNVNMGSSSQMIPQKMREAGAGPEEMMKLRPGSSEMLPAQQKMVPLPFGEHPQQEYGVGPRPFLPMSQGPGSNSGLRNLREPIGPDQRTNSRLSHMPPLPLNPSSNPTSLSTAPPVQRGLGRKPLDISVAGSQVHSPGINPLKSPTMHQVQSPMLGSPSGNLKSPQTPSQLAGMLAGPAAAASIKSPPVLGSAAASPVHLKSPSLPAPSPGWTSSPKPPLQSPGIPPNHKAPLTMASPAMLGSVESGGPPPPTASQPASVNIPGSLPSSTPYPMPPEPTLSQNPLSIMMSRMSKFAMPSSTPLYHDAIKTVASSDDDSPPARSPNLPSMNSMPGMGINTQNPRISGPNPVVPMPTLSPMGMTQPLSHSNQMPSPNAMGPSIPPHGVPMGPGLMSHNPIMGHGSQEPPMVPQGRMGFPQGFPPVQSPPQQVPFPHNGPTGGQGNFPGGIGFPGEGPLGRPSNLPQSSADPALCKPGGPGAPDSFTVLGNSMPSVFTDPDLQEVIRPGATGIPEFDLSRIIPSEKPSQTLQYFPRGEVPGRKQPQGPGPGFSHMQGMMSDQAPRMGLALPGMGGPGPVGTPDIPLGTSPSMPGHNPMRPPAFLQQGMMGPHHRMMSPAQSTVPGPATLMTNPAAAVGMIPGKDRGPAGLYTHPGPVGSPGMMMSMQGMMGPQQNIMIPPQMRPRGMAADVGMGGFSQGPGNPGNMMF

HCT-116 [2] = test: Induction of apoptosis in Wnt-dependent human HCT-116 cells assessed as late apoptotic cells at 10 uM incubated for 24 hrs by Annexin V-Alexa Fluor 647/PI staining based flow cytomtery (Rvb=14.7%); type: functional
HCT-116 [3] = test: Induction of apoptosis in Wnt-dependent human HCT-116 cells assessed as late apoptotic cells at 20 uM incubated for 24 hrs by Annexin V-Alexa Fluor 647/PI staining based flow cytomtery (Rvb=14.7%); type: functional
CT26 [4] = test: Synergistic antitumor activity in mouse CT26 cells xenografted in BALB/c mouse assessed as increase in granzyme B-positive CD8+ T cell infiltration into tumor at 30 mg/kg, ip QD in presence of anti-PD-1 antibody cotreatment at 10 mg/kg,ip BIW by flow cytometry; type: functional, organism-based
[5] = Half life in Sprague-Dawley rat at 21 mg/kg, ip and measured upto 24 hrs by LC-MS analysis; type: ADME, organism-based; conditions: in vivo
[6] = Microsomal stability in human liver microsomes assessed as intrinsic clearance at […] and measured upto 60 mins by LC-MS/MS analysis; type: ADME, Microsome; conditions: read-out: CLH
HCT-116 [7] = test: Induction of apoptosis in Wnt-dependent human HCT-116 cells assessed as viable cells at 20 uM incubated for 24 hrs by Annexin V-Alexa Fluor 647/PI staining based flow cytomtery (Rvb=69.5%); type: functional; conditions: read-out: Activity
HEK293 [8] = test: Antiproliferative activity against Wnt-independent human HEK293 cells assessed as cell growth inhibition at 40 uM incubated for 48 hrs by CellTiter-Glo assay; type: functional, cell-based
[9] = Toxicity in BALB/c mouse xenografted with mouse CT26 cells assessed as pathological changes in spleen at 30 mg/kg, ip QD by hematoxylin and eosin staining based microscopic analysis; type: organism-based; conditions: in vivo
HEK293 [10] = test: Induction of apoptosis in Wnt-independent human HEK293 cells assessed as viable cells at 10 uM incubated for 24 hrs by Annexin V-Alexa Fluor 647/PI staining based flow cytomtery (Rvb=70.5%); type: functional; conditions: read-out: Activity

SMILES: CC(C)c1ccc(-c2cccc(S(=O)(=O)N3CCCC(c4cccc(OC(C)(C)C(=O)NS(=O)(=O)c5ccc(C(F)(F)F)cc5)c4)C3)c2)cc1 (stereo unspecified)
- Activity (CT26 [1]): Dose-Dependent Effect
- IC50 (Beta catenin-BCL9): 51.6 µM
- Activity (HCT-116 [2]): 21.5%
- Activity (HCT-116 [3]): 33.1%
- Activity (CT26 [4]): Active
- half-life [5]: 1.15 h
- microsomal CLint [6]: 43.2 µL/min/mg
- viability at 20 µM (HCT-116 [7]): 37.3%
- Activity (HEK293 [8]): inactive
- Activity [9]: Non-Toxic
- viability at 10 µM (HEK293 [10]): 70.8%

From ChEMBL document CHEMBL5316313, “Discovery of Novel 3-Phenylpiperidine Derivatives Targeting the β-Catenin/B-Cell Lymphoma 9 Interaction as a Single Agent and in Combination with the Anti-PD-1 Antibody for the Treatment of Colorectal Cancer” (J Med Chem, 2023)
